# Results reported in patent publication US9663496B2, “AMPK-activating heterocyclic compounds and methods for using the same” (Rigel Pharmaceuticals, Inc., priority 2010, dated 2017).
# Molecular target: AMPK
# Experiment: AMPK activation, enzyme-linked immunosorbent assay
# Format: biochemical
# Conditions: EC50 for AMPK activation, ELISA
# Procedure, shortened: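 Test compounds were added, and kinase activation was then detected by immunoassay following established kit procedures.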
row,EC50 [nM],SMILES
1,1000 to 5000,"CC(=O)Nc1cccc(OC2CCN(C(=O)c3ccc(C(=O)Nc4ccc(Oc5ccc(F)cc5)nc4)cn3)CC2)c1 [Compound 414, 6-(4-(3-acetamidophenoxy)piperidine-1-carbonyl)-N-(6-(4-fluorophenoxy)pyridin-3-yl)nicotinamide]"
2,< 500,"N#Cc1ccc(CN2CCC(NC(=O)c3ccc(C(=O)N4CCC(Oc5ccc(S(=O)(=O)C(F)(F)F)cc5)CC4)cn3)CC2)cc1 [Compound 415, N-(1-(4-cyanobenzyl)piperidin-4-yl)-5-(4-(4-(trifluoromethylsulfonyl)phenoxy)piperidine-1-carbonyl)picolinamide]"
3,1000 to 5000,"COc1ccc(C(=O)C2CCN(C(=O)c3ncc(C(=O)NC4CCN(Cc5ccc(C#N)cc5)CC4)cc3CCCNC(=O)OC(C)(C)C)CC2)cc1 [Compound 416, tert-butyl 3-(5-(1-(4-cyanobenzyl)piperidin-4-ylcarbamoyl)-2-(4-(4-methoxybenzoyl)piperidine-1-carbonyl)pyridin-3-yl)propylcarbamate]"
4,< 500,"N#Cc1ccc(N2CCC(NC(=O)c3ccc(C(=O)N4CCN(Cc5ccc(F)cc5)CC4)nc3)CC2)cc1 [Compound 417, N-(1-(4-cyanophenyl)piperidin-4-yl)-6-(4-(4-fluorobenzyl)piperazine-1-carbonyl)nicotinamide]"
5,< 500,"N#Cc1ccc(OC2CCN(C(=O)c3ccc(C(=O)NC4CCN(c5ccc(C#N)cc5)CC4)cn3)CC2)cc1 [Compound 418, 6-(4-(4-cyanophenoxy)piperidine-1-carbonyl)-N-(1-(4-cyanophenyl)piperidin-4-yl)nicotinamide]"
6,< 500,"N#Cc1ccc(CN2CCC(NC(=O)c3ccc(C(=O)N4CCC(C(=O)c5cccs5)CC4)cn3)CC2)cc1 [Compound 419, N-(1-(4-cyanobenzyl)piperidin-4-yl)-5-(4-(thiophene-2-carbonyl)piperidine-1-carbonyl)picolinamide]"
7,1000 to 5000,"CS(=O)(=O)c1ccc(N2CCC(NC(=O)c3ccc(C(=O)N4CCC(Oc5ccc(C#N)cc5)CC4)nc3)CC2)cc1 [Compound 420, 6-(4-(4-cyanophenoxy)piperidine-1-carbonyl)-N-(1-(4-(methylsulfonyl)phenyl)piperidin-4-yl)nicotinamide]"
8,1000 to 5000,"N#Cc1ccc(OC2CCN(C(=O)c3ccc(C(=O)NC4CCN(c5ccc(F)cc5)CC4)cn3)CC2)cc1 [Compound 422, 6-(4-(4-cyanophenoxy)piperidine-1-carbonyl)-N-(1-(4-fluorophenyl)piperidin-4-yl)nicotinamide]"
9,< 500,"COc1ccc(N2CCC(NC(=O)c3ccc(C(=O)N4CCC(Oc5ccc(C#N)cc5)CC4)nc3)CC2)cc1 [Compound 423, 6-(4-(4-cyanophenoxy)piperidine-1-carbonyl)-N-(1-(4-methoxyphenyl)piperidin-4-yl)nicotinamide]"
10,< 500,"COc1ccc(C(=O)C2CCN(C(=O)c3ccc(C(=O)NC4CCN(Cc5cccc(OC(F)(F)F)c5)CC4)cn3)CC2)cc1 [Compound 424, 6-(4-(4-methoxybenzoyl)piperidine-1-carbonyl)-N-(1-(3-(trifluoromethoxy)benzyl)piperidin-4-yl)nicotinamide]"
11,< 500,"COc1ccc(C(=O)C2CCN(C(=O)c3ccc(C(=O)NC4CCN(Cc5cccc(OC)c5)CC4)cn3)CC2)cc1 [Compound 425, 6-(4-(4-methoxybenzoyl)piperidine-1-carbonyl)-N-(1-(3-methoxybenzyl)piperidin-4-yl)nicotinamide]"
12,< 500,"COc1ccc(C(=O)C2CCN(C(=O)c3ccc(C(=O)N[C@@H]4CCN(Cc5cc(C)on5)C[C@@H]4F)cn3)CC2)cc1 [Compound 426, N-((3S,4R)-3-fluoro-1-((5-methylisoxazol-3-yl)methyl)piperidin-4-yl)-6-(4-(4-methoxybenzoyl)piperidine-1-carbonyl)nicotinamide]"
13,1000 to 5000,"COc1ccc(C(=O)C2CCN(C(=O)c3ccc(C(=O)N[C@@H]4CCN(Cc5csc(C)n5)C[C@@H]4F)cn3)CC2)cc1 [Compound 427, N-((3S,4R)-3-fluoro-1-((2-methylthiazol-4-yl)methyl)piperidin-4-yl)-6-(4-(4-methoxybenzoyl)piperidine-1-carbonyl)nicotinamide]"
14,500 to 1000,"CC(=O)Nc1ccc(OC2CCN(C(=O)c3ccc(C(=O)NC4CCN(Cc5cccc(OC(F)(F)F)c5)CC4)cn3)CC2)cc1 [Compound 428, 6-(4-(4-acetamidophenoxy)piperidine-1-carbonyl)-N-(1-(3-(trifluoromethoxy)benzyl)piperidin-4-yl)nicotinamide]"
15,500 to 1000,"N#Cc1ccc(CN2CCC(NC(=O)c3ccc(C(=O)N4CCC(Oc5cccc(NC(=O)C6CC6)c5)CC4)nc3)CC2)cc1 [Compound 431, N-(1-(4-cyanobenzyl)piperidin-4-yl)-6-(4-(3-(cyclopropanecarboxamido)phenoxy)piperidine-1-carbonyl)nicotinamide]"
16,500 to 1000,"O=C(NC1CCN(Cc2ccc(F)cc2)CC1)c1ccc(C(=O)N2CCC(Oc3cccc(NC(=O)C4CC4)c3)CC2)nc1 [Compound 432, 6-(4-(3-(cyclopropanecarboxamido)phenoxy)piperidine-1-carbonyl)-N-(1-(4-fluorobenzyl)piperidin-4-yl)nicotinamide]"
17,< 500,"O=C(Nc1ccc(Oc2ccc(F)cc2)nc1)c1ccc(C(=O)N2CCC(Oc3cccc(NC(=O)C4CC4)c3)CC2)nc1 [Compound 433, 6-(4-(3-(cyclopropanecarboxamido)phenoxy)piperidine-1-carbonyl)-N-(6-(4-fluorophenoxy)pyridin-3-yl)nicotinamide]"
18,< 500,"N#Cc1ccc(O[C@H]2CC[C@@H](NC(=O)c3ccc(C(=O)N4CCC(Oc5cccc(NC(=O)C6CC6)c5)CC4)nc3)CC2)cc1 [Compound 434, N-((cis)-4-(4-cyanophenoxy)cyclohexyl)-6-(4-(3-(cyclopropanecarboxamido)phenoxy)piperidine-1-carbonyl)nicotinamide]"
19,< 500,"COc1ccc(CN2CCC(NC(=O)c3ccc(C(=O)N4CCC(Oc5cccc(NC(=O)C6CC6)c5)CC4)nc3)CC2)cc1 [Compound 435, 6-(4-(3-(cyclopropanecarboxamido)phenoxy)piperidine-1-carbonyl)-N-(1-(4-methoxybenzyl)piperidin-4-yl)nicotinamide]"
20,< 500,"N#Cc1ccc(CN2CCC(NC(=O)c3ccc(C(=O)N4CCC(Oc5ccc(SC(F)(F)F)cc5)CC4)nn3)CC2)cc1 [Compound 436, N-(1-(4-cyanobenzyl)piperidin-4-yl)-6-(4-(4-(trifluoromethylthio)phenoxy)piperidine-1-carbonyl)pyridazine-3-carboxamide]"
21,< 500,"O=C(NC1CCN(Cc2ccc(OC(F)(F)F)cc2)CC1)c1ccc(C(=O)N2CCC(Oc3cccc(NC(=O)C4CC4)c3)CC2)nc1 [Compound 438, 6-(4-(3-(cyclopropanecarboxamido)phenoxy)piperidine-1-carbonyl)-N-(1-(4-(trifluoromethoxy)benzyl)piperidin-4-yl)nicotinamide]"
22,< 500,"COc1ccc(CN2CCC(NC(=O)c3ccc(C(=O)N4CCC(C(=O)c5ccc(N6CCCC6)cc5)CC4)nc3)CC2)cc1 [Compound 439, N-(1-(4-methoxybenzyl)piperidin-4-yl)-6-(4-(4-(pyrrolidin-1-yl)benzoyl)piperidine-1-carbonyl)nicotinamide]"
